Test results as given in ChEMBL document CHEMBL1201862, “PubChem BioAssay data set” (2004).
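Exposure lasted 48 hours, with cells grown in 96-well plates and compounds tested at five concentrations. The concentration for 50% growth inhibition is given as GI50.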 The source made the active and inactive calls. Cut-off read from the data, not from the text of the source: active = GI50 up to about 1.1 µM and inactive = higher.

What was measured:
Assay in all cases: NCI tumour cell line growth inhibition, 48 h
[1] = tested on: A549
[2] = tested on: COLO 205
[3] = tested on: EKVX
[4] = tested on: HT-29
[5] = tested on: IGROV-1
[6] = tested on: MOLT-4
[7] = tested on: NCI-H23
[8] = tested on: NCI-H460
[9] = tested on: OVCAR-5
[10] = tested on: OVCAR-8
[11] = tested on: RPMI-8226
[12] = tested on: RXF 393
[13] = tested on: SF-268
[14] = tested on: SK-MEL-28
[15] = tested on: SK-MEL-5
[16] = tested on: SNB-19
[17] = tested on: SW-620
[18] = tested on: UACC-257
[19] = tested on: UACC-62
[20] = tested on: UO-31

Measured: GI50

COc1ccc(-c2c3c(nc4nc(SCCc5ccccc5)nc(N)c24)CCCC3)cc1OC
inactive: [1] > 100 µM | [2] > 100 µM | [3] > 100 µM | [4] > 100 µM | [5] > 100 µM | [6] > 100 µM | [7] > 100 µM | [8] > 100 µM | [9] > 100 µM | [10] > 100 µM | [11] > 100 µM | [12] 24.9 µM | [13] > 100 µM | [14] > 100 µM | [15] > 100 µM | [16] > 100 µM | [17] > 100 µM | [18] > 100 µM | [19] > 100 µM | [20] > 100 µM

O=C(N/N=C/c1ccccc1)c1c(F)c(F)c(F)c(F)c1F
inactive: [1] > 100 µM | [2] > 100 µM | [3] > 100 µM | [4] 54.2 µM | [5] > 100 µM | [6] > 100 µM | [7] > 100 µM | [8] > 100 µM | [9] > 100 µM | [10] > 100 µM | [11] > 100 µM | [12] > 100 µM | [13] > 100 µM | [14] > 100 µM | [15] > 100 µM | [16] > 100 µM | [17] 96.8 µM | [18] > 100 µM | [19] 33.3 µM | [20] > 100 µM

CCOC(=O)NC(OCc1ccccc1)(C(=O)OC)C(F)(F)F (stereo not given)
inactive: [1] > 100 µM | [2] > 100 µM | [3] > 100 µM | [4] > 100 µM | [5] > 100 µM | [6] > 100 µM | [7] > 100 µM | [8] > 100 µM | [9] > 100 µM | [10] > 100 µM | [11] > 100 µM | [12] > 100 µM | [13] > 100 µM | [14] > 100 µM | [15] > 100 µM | [16] > 100 µM | [17] > 100 µM | [18] > 100 µM | [19] > 100 µM | [20] > 100 µM

C/C=C/C1=CC(=O)C(O)C1O (stereo not given)
inactive: [1] 29 µM | [2] 22 µM | [3] 44.6 µM | [4] 29.6 µM | [5] 35.6 µM | [6] 28 µM | [7] 25.9 µM | [8] 19.7 µM | [9] 39.7 µM | [10] 24.8 µM | [11] 22.1 µM | [12] 15.1 µM | [13] 26.5 µM | [14] 30.9 µM | [15] 28.4 µM | [16] 37.2 µM | [17] 27.2 µM | [18] 29.4 µM | [19] 26.6 µM | [20] 32.2 µM

Cc1csc(/N=C(/NCCN2CCOCC2)Nc2nc(C)cs2)n1
inactive: [1] > 100 µM | [2] > 100 µM | [3] > 87.9 µM | [4] > 100 µM | [5] > 100 µM | [6] > 100 µM | [7] > 100 µM | [8] > 100 µM | [9] > 100 µM | [10] > 100 µM | [11] > 100 µM | [12] > 100 µM | [13] > 100 µM | [14] > 100 µM | [15] > 100 µM | [16] > 100 µM | [17] > 100 µM | [18] > 100 µM | [19] > 100 µM | [20] > 100 µM

COC(=O)C(C/C=C(\C)c1ccc(Cl)cc1)C(C)=O (stereo not given)
inactive: [1] 31 µM | [2] 59.8 µM | [3] 54.5 µM | [4] 32.3 µM | [5] 53.6 µM | [6] 17.9 µM | [7] 35.5 µM | [8] > 100 µM | [9] 16.4 µM | [10] 52 µM | [11] 24.2 µM | [12] 26.7 µM | [13] 48.3 µM | [14] 61.5 µM | [15] 21.3 µM | [16] > 100 µM | [17] 50.9 µM | [18] 23 µM | [19] 38.5 µM | [20] 22.9 µM

Cc1ccc(NC(=O)C(Cc2c[nH]c3ccccc23)NC(=O)Oc2ccccc2)cc1C (stereo not given)
inactive: [1] 66.4 µM | [2] 50.4 µM | [3] 59.7 µM | [4] 41.3 µM | [5] 30.5 µM | [6] 57.5 µM | [7] > 100 µM | [8] 39.4 µM | [9] > 100 µM | [10] 57.5 µM | [11] 26.7 µM | [12] 25.2 µM | [13] 50.7 µM | [14] > 100 µM | [15] 44.1 µM | [16] > 100 µM | [17] > 100 µM | [18] > 100 µM | [19] 54.7 µM | [20] 77.6 µM

CCO[C@]12C[C@H](OC)[C@@]3(O)CC(C1[C@H]3O)C13C4C2[C@H](OC)C1[C@](COC)(CN4CC)[C@H](O)C[C@@H]3OC (stereo not given in full)
inactive: [1] > 100 µM | [2] > 100 µM | [3] > 100 µM | [4] > 100 µM | [5] > 100 µM | [6] > 100 µM | [7] > 100 µM | [8] > 100 µM | [9] > 100 µM | [10] > 100 µM | [11] > 100 µM | [12] > 100 µM | [13] > 100 µM | [14] > 100 µM | [15] > 100 µM | [16] > 100 µM | [17] > 100 µM | [18] > 100 µM | [19] > 100 µM | [20] > 100 µM

C=CC(C)C1(CCCOCc2ccccc2)C(=S)N2CCC3(CC24CCCC14)OCCO3 (stereo not given)
inactive: [1] 16 µM | [2] 28.5 µM | [3] > 100 µM | [4] 21.9 µM | [5] > 100 µM | [6] 3.93 µM | [7] 6.1 µM | [8] 26.3 µM | [9] > 100 µM | [10] 23.3 µM | [11] 2.72 µM | [12] 6.46 µM | [13] 5.93 µM | [14] 14.3 µM | [15] 5.61 µM | [16] 24.5 µM | [17] 31.6 µM | [18] 9.68 µM | [19] > 100 µM | [20] 28.8 µM

Cc1cc2cc3c(C)cc(=O)oc3c(C)c2o1 [TRIOXSALEN]
inactive: [1] > 100 µM | [2] > 100 µM | [3] 90.6 µM | [4] > 100 µM | [5] > 100 µM | [6] > 100 µM | [7] > 100 µM | [8] > 100 µM | [9] > 100 µM | [10] > 100 µM | [11] > 100 µM | [12] > 100 µM | [13] > 100 µM | [14] > 100 µM | [15] > 100 µM | [16] > 100 µM | [17] > 100 µM | [18] > 100 µM | [19] > 100 µM | [20] > 100 µM
